What was measured:
Assay type in all cases: in vivo
Bcl-2 protein = experiment: Western blot of Bcl-2 in heart tissue of high-fat diet mice; details: high-fat diet C57BL/6 mice, 5, 10 and 25 mg/kg/day intraperitoneally (groups 3 to 5) vs group 2 (high-fat diet, saline); relative to tubulin
Method: (§1) The male C57BL/6 mice at the age of 6 weeks were divided into 5 groups for 8 mice in each group. […]
(§2) Protein concentration of the extract was determined by Lowry's protein assay method. […]
(§3) The protein extraction of the mice heart tissues from the each group in example 2 were processed by the western blot method in example 3 to observe the expressions of related apoptosis regulatory proteins in the mice heart tissues from the each group. The results were shown at FIGS. 2 and 3, wherein the tubulin was used for an internal control in FIG. 2 and the expression levels of related apoptosis regulatory proteins were calculated basing on the expression level of tubulin in each figure of FIG. 3.

cytochrome C = experiment: Western blot of cytochrome C in heart tissue of high-fat diet mice; details: high-fat diet C57BL/6 mice, 5, 10 and 25 mg/kg/day intraperitoneally (groups 3 to 5) vs group 2 (high-fat diet, saline); relative to tubulin
Method: as §1, §2, §3

caspase-3 = experiment: Western blot of activated caspase-3 in heart tissue of high-fat diet mice; details: high-fat diet C57BL/6 mice, 5, 10 and 25 mg/kg/day intraperitoneally (groups 3 to 5) vs group 2 (high-fat diet, saline); relative to tubulin
Method: as §1, §2, §3

[1] = test system: nuclear factor of activated T-cells C3 (NFTA-C3); experiment: Western blot of NFTA-C3 in heart tissue of high-fat diet mice; details: high-fat diet C57BL/6 mice, 5, 10 and 25 mg/kg/day intraperitoneally (groups 3 to 5) vs group 2 (high-fat diet, saline); relative to tubulin
Method: as §1, §2
(§4) The protein extraction of the mice heart tissues from the each group in example 2 were processed by the western blot method in example 3 to observe the expressions of nuclear factor of activated T-cells C3 (NFTA-C3) and calcineurin in the mice heart tissues from the each group. The results were shown at FIGS. 4 and 5, wherein the tubulin was used for an internal control in FIG. 4 and the expression levels of NFTA-C3 and calcineurin were calculated basing on the expression level of tubulin in each figure of FIG. 5.

calcineurin = experiment: Western blot of calcineurin in heart tissue of high-fat diet mice; details: high-fat diet C57BL/6 mice, 5, 10 and 25 mg/kg/day intraperitoneally (groups 3 to 5) vs group 2 (high-fat diet, saline); relative to tubulin
Method: as §1, §2, §4

STAT-3 = experiment: Western blot of STAT-3 in heart tissue of high-fat diet mice; details: high-fat diet C57BL/6 mice, 5, 10 and 25 mg/kg/day intraperitoneally (groups 3 to 5) vs group 2 (high-fat diet, saline); relative to tubulin
Method: as §1, §2
(§5) The protein extraction of the mice heart tissues from the each group in example 2 were processed by the western blot method in example 3 to observe the expressions of the related signal transduction proteins of heart hypertrophy including: STAT-3, IL-6, MEK-5 and ERK-5. The results were shown at FIGS. 6 and 7, wherein the tubulin was used for an internal control in FIG. 6 and the expression levels of the related signal transduction proteins of heart hypertrophy in the mice heart tissues from each group was calculated basing on the expression level of tubulin in FIG. 7.

IL-6 = experiment: Western blot of IL-6 in heart tissue of high-fat diet mice; details: high-fat diet C57BL/6 mice, 5, 10 and 25 mg/kg/day intraperitoneally (groups 3 to 5) vs group 2 (high-fat diet, saline); relative to tubulin
Method: as §1, §2, §5

MEK-5 = experiment: Western blot of MEK-5 in heart tissue of high-fat diet mice; details: high-fat diet C57BL/6 mice, 5, 10 and 25 mg/kg/day intraperitoneally (groups 3 to 5) vs group 2 (high-fat diet, saline); relative to tubulin
Method: as §1, §2, §5

ERK-5 = experiment: Western blot of ERK-5 in heart tissue of high-fat diet mice; details: high-fat diet C57BL/6 mice, 5, 10 and 25 mg/kg/day intraperitoneally (groups 3 to 5) vs group 2 (high-fat diet, saline); relative to tubulin
Method: as §1, §2, §5

p38α protein = experiment: Western blot of p38α protein in heart tissue of high-fat diet mice; details: high-fat diet C57BL/6 mice, 5, 10 and 25 mg/kg/day intraperitoneally (groups 3 to 5) vs group 2 (high-fat diet, saline); relative to tubulin
Method: (§6) The male C57BL/6 mice at the age of 6 weeks were divided into 5 groups for 8 mice in each group. The each group of mice were feed at 24±2° C. of temperature, humidity of 55±10% and 12/12 light cycle for 8 weeks, wherein the group 1 was control group on a normal diet (PMI Nutrition International, Brentwood, Mo., USA) and injected 0.9% saline intraperitoneally; the group 2 was fed high-fat diet to induce the mice into heart hypertrophy model and injected 0.9% saline intraperitoneally; the group 3 was fed high-fat diet and SEQ ID NO.:1 peptide was injected intraperitoneally with the dose of 5 mg/kg/day; the group 4 was fed high-fat diet and SEQ ID NO.:1 peptide was injected intraperitoneally with the dose of 10 mg/kg/day; the group 5 was fed high-fat diet and SEQ ID NO.:1 peptide was injected intraperitoneally with the dose of 25 mg/kg/day. […]
as §2
(§7) The protein extraction of the mice heart tissues from the each group in example 2 were processed by the western blot method in example 3 to observe the expressions of p38α protein and JNK. The results were shown at FIGS. 8 and 9, wherein the tubulin was used for an internal control in FIG. 8 and the expression levels of p38α protein and JNK were calculated basing on the expression level of tubulin in each figure of FIG. 9.

JNK = experiment: Western blot of JNK in heart tissue of high-fat diet mice; details: high-fat diet C57BL/6 mice, 5, 10 and 25 mg/kg/day intraperitoneally (groups 3 to 5) vs group 2 (high-fat diet, saline); relative to tubulin
Method: as §6, §2, §7

FGF-2 = experiment: Western blot of FGF-2 in heart tissue of high-fat diet mice; details: high-fat diet C57BL/6 mice, 5, 10 and 25 mg/kg/day intraperitoneally (groups 3 to 5) vs group 2 (high-fat diet, saline); relative to tubulin
Method: as §1, §2
(§8) The protein extraction of the mice heart tissues from the each group in example 2 were processed by the western blot method in example 3 to observe the expressions of the related proteins of cardiac fibrosis pathway including: FGF-2, ERK-1, UPA, MMP-2 and MMP-9. The results were shown at FIGS. 10 and 11, wherein the tubulin was used for an internal control in FIG. 10 and the expression levels of FGF-2, ERK-1, UPA, MMP-2 and MMP-9 in the mice heart tissues from the each group was calculated basing on the expression level of tubulin in each figures of FIG. 11.

ERK-1 = experiment: Western blot of ERK-1 in heart tissue of high-fat diet mice; details: high-fat diet C57BL/6 mice, 5, 10 and 25 mg/kg/day intraperitoneally (groups 3 to 5) vs group 2 (high-fat diet, saline); relative to tubulin
Method: as §1, §2, §8

UPA = experiment: Western blot of UPA in heart tissue of high-fat diet mice; details: high-fat diet C57BL/6 mice, 5, 10 and 25 mg/kg/day intraperitoneally (groups 3 to 5) vs group 2 (high-fat diet, saline); relative to tubulin
Method: as §1, §2, §8

MMP-2 = experiment: Western blot of MMP-2 in heart tissue of high-fat diet mice; details: high-fat diet C57BL/6 mice, 5, 10 and 25 mg/kg/day intraperitoneally (groups 3 to 5) vs group 2 (high-fat diet, saline); relative to tubulin
Method: as §1, §2, §8

MMP-9 = experiment: Western blot of MMP-9 in heart tissue of high-fat diet mice; details: high-fat diet C57BL/6 mice, 5, 10 and 25 mg/kg/day intraperitoneally (groups 3 to 5) vs group 2 (high-fat diet, saline); relative to tubulin
Method: as §1, §2, §8

ANP = experiment: Western blot of ANP in heart tissue of high-fat diet mice; details: high-fat diet C57BL/6 mice, 5, 10 and 25 mg/kg/day intraperitoneally (groups 3 to 5) vs group 2 (high-fat diet, saline); relative to tubulin
Method: as §1, §2
(§9) The protein extraction of the mice heart tissues from the each group in example 2 were processed by the western blot method in example 3 to observe the expressions of the indicator of heart hypertrophy and heart failure. The results were shown at FIGS. 12 and 13, wherein the tubulin was used for an internal control in FIG. 12 and the expression levels of the ANP and BNP in the mice heart tissues from the each group was calculated basing on the expression level of tubulin in each figures of FIG. 13.

BNP = experiment: Western blot of BNP in heart tissue of high-fat diet mice; details: high-fat diet C57BL/6 mice, 5, 10 and 25 mg/kg/day intraperitoneally (groups 3 to 5) vs group 2 (high-fat diet, saline); relative to tubulin
Method: as §1, §2, §9

myocardial cells = experiment: H&E stained section of heart tissues of high-fat diet mice; details: 15 and 25 mg/kg/day intraperitoneally (groups 3 and 4) vs group 2 (high-fat diet, saline)
Method: The male C57BL/6 mice at the age of 6 weeks were divided into 5 groups for 8 mice in each group. The each group of mice were feed at 24±2° C. of temperature, humidity of 55±10% and 12/12 light cycle for 8 weeks, wherein the group 1 was control group on a normal diet (PMI Nutrition International, Brentwood, Mo., USA) and injected 0.9% saline intraperitoneally; the group 2 was fed high-fat diet to induce the mice into heart hypertrophy model and injected 0.9% saline intraperitoneally; the group 3 was fed high-fat diet and SEQ ID NO.:1 peptide was injected intraperitoneally with the dose of 5 mg/kg/day; the group 4 was fed high-fat diet and SEQ ID NO.:1 peptide was injected intraperitoneally with the dose of 10 mg/kg/day; the group 5 was fed high-fat diet and SEQ ID NO.:1 peptide was injected intraperitoneally with the dose of 25 mg/kg/day. The injection period of each group of mice was between the third week to the sixth week of feeding period. The high-fat diet contained 60% of energy as fat.
The feeding method was the same with example 1. Mice were divided into 4 groups for feeding at different conditions. The intraperitoneal injection was performed between the third week and the sixth week of the feeding period. […]

For “SEQ ID NO.:1 peptide: isolated peptide which amino acid sequence is SEQ ID NO.: 1; extracted from organisms, separated by hydrolysis or chemical synthesis (VHVV)”, the “expression level of Bcl-2 in the heart cell” value (Bcl-2 protein) was “obviously increased”, the “expression level of cytochrome C in the heart cell” value (cytochrome C) was “obviously decreased” and the “expression level of activated caspase-3 in the heart cell” value (caspase-3) was “obviously decreased”. For the same substance, the “expression level of NFTA-C3 in the heart cells” value [1] was “obviously decreased”, the “expression level of calcineurin in the heart cells” value (calcineurin) was “obviously decreased” and the “expression level of STAT-3 in the heart tissues” value (STAT-3) was “obviously lower”. The “expression level of IL-6 in the heart tissues” value (IL-6) was “obviously lower”, the “expression level of MEK-5 in the heart tissues” value (MEK-5) was “obviously lower” and the “expression level of ERK-5 in the heart tissues” value (ERK-5) was “obviously lower”. The “expression level of p38α protein in the heart cells” value (p38α protein) was “significantly lower”, the “expression level of JNK in the heart cells” value (JNK) was “significantly lower” and the “expression level of FGF-2 (related protein of cardiac fibrosis pathway) in heart tissues” value (FGF-2) was “obviously lower”. The “expression level of ERK-1 (related protein of cardiac fibrosis pathway) in heart tissues” value (ERK-1) was “obviously lower”, the “expression level of UPA (related protein of cardiac fibrosis pathway) in heart tissues” value (UPA) was “obviously lower” and the “expression level of MMP-2 (related protein of cardiac fibrosis pathway) in heart tissues” value (MMP-2) was “obviously lower”. The “expression level of MMP-9 (related protein of cardiac fibrosis pathway) in heart tissues” value (MMP-9) was “obviously lower”, the “expression level of ANP in the heart tissues” value (ANP) was “obviously decreased” and the “expression level of BNP in the heart tissues” value (BNP) was “obviously decreased”. For the same substance, the “arrangement of myocardial cells in H&E stained heart sections” value (myocardial cells) was “more orderly and closely and has normal structure of heart muscles”.

From US20150368296A1, “Method for preventing or treating heart diseases by using a composition containing an isolated peptide” (Tunghai University, priority 2014, published 2015)
